Assay results published in US20080248993A1, “Modified Beta Thymosin Peptides” (REGENERX BIOPHARMACEUTICALS, INC., priority 2005, published 2008).
Like-named read-outs stand apart in the source and are kept apart here.

Target: G-actin
Assay: G-actin binding affinity (ultrafiltration of free and bound peptide, HPLC of the ultrafiltrate)
Protocol: Tests were conducted to determine the G-actin binding affinity of Tβ4^leu as compared to native Tβ4. The experiments were repeated twice and in triplicate, with the results shown below (averages from 3 experiments):
The lower values in the case of Tβ4 are caused by its sulfoxide. Tβ4 plus Tβ4-sulfoxide was determined by amino acid analysis. […] Thus the real concentration of Tβ4 in the tests are lower and the decrease of free Tβ4 is higher when compared to non-oxidized Tβ4. The decrease of free beta-thymosin was measured. G-actin bound Tβ4 and free Tβ4 were separated by ultrafiltration and the concentration of Tβ4 in the ultrafiltrate was measured by HPLC. The procedure utilized is described in Huff et al., FEPS Letters, 414:39-44 (1997).

[1] = First determination, averages from 3 experiments, read-out: Kd, G-actin binding
[2] = Second determination, averages from 3 experiments, read-out: Kd, G-actin binding

Kd [1] [nM]	Kd [2] [nM]	G-actin binding, in words (qualitative statement)	Kd (Example 8, comparison of Tβ4-sulfone with Tβ4 and Tβ4-sulfoxide, read-out: Kd value of the complex with G-actin) [nM]	Substance
1360	990	substantial actin-binding activity	–	Tβ4^leu: Thymosin β4 with leucine substituted for methionine at position 6 (SDKPDLAEIEKFDKSKLKKTETQEKNPLPSKETIEQEKQAGES; not fully specified; Thymosin beta-4; UniProt P62328 2-44, looked up, variant M6L)
1280	540	–	1000	Tβ4: Native 43 amino acid, 4.9 kDa polypeptide with methionine at position 6; comparator
